Measurements: US9340513B2, “Propenoate derivatives of betulin” (GlaxoSmithKline LLC, priority 2011, dated 2016)

Test system: HIV-1 (strain IIIB)
Assay: MT4 Cell Antiviral Assay
Format: cell-based
Conditions: Human immunodeficiency virus 1, 120 h; HIV-1 strain IIIB in MT4 cells, 5 days, Cell Titer-Glo; 50% decrease in HIV-induced cytopathic effect
Procedure: Antiviral HIV activity and compound-induced cytotoxicity were measured in parallel based on a modified protocol of the propidium iodide based procedure in the human T-cell lymphotropic virus transformed cell line MT4. Aliquots of the test compounds were serially diluted in DMSO plated in 96-well plates. Exponentially growing MT4 cells were harvested and pelleted. Cell pellets were resuspended in fresh medium (RPMI 1640, 10% FCS, and gentamycin. Cell aliquots were infected by the addition of HIV-1 (strain IIIB) diluted to give a viral multiplicity of infection of 300×TCID50/million cells. A similar cell aliquot was diluted with medium to provide a mock-infected control. Cell infection was allowed to proceed for 1 hr at 37° C. in a tissue culture incubator with humidified 5% CO2 atmosphere. After the 1 hr incubation the virus/cell suspensions were diluted with fresh medium, and added to each well of the plate containing pre-diluted compound. Plates were then placed in a tissue culture incubator with humidified 5% CO2 for 5 days. […] The plates were analyzed in an automated plate reader for luminescence.assay. The control and standard used was efavirinz tested over a concentration range of 0.001 to 1 μM in every assay. The expected range of IC50 values for efavirinz is 0.1 to 1 nM.
The antiviral effect of a test compound is reported as an IC50, i.e. the inhibitory concentration that would produce a 50% decrease in the HIV-induced cytopathic effect. This effect is measured by the amount of test compound required to restore 50% of the cell growth of HIV-infected MT4 cells, compared to uninfected MT4 cell controls. IC50 was calculated by RoboSage, Automated Curve Fitting Program.
For each assay plate, the results (of wells containing uninfected cells or infected cells with no compound were averaged, respectively. For measurements of compound-induced cytotoxicty, results from wells containing various compound concentrations and uninfected cells were compared to the average of uninfected cells without compound treatment. Percent of cells remaining is determined by the following formula: Percent of cells remaining=(compound-treated uninfected cells/untreated uninfected cells)×100.
A level of percent of cells remaining of 79% or less indicates a significant level of direct compound-induced cytotoxicity for the compound at that concentration. When this condition occurs the results from the compound-treated infected wells at this concentration are not included in the calculation of IC50.
For measurements of compound antiviral activity, results from wells containing various compound concentrations and infected cells are compared to the average of uninfected and infected cells without compound treatment. Percent inhibition of virus is determined by the following formula: Percent inhibition of virus=(1−((ave. untreated uninfected cells−treated infected cells)/(ave. untreated uninfected cells−ave. untreated infected cells)))×100

| SMILES | IC50 [µM] |
| --- | --- |
| CC(C)C1=C2[C@H]3CC[C@@H]4[C@@]5(C)CC[C@H](OC(=O)CC(C)(C)C(=O)O)C(C)(C)[C@@H]5CC[C@@]4(C)[C@]3(C)CC[C@@]2(/C=C/C(=O)Nc2ccc(Cl)cn2)CC1=O [Example 18, 4-(((3aS,5aR,5bR,7aR,9S,11aR,11bR,13aS)-3a-((E)-3-((5-Chloropyridin-2-yl)amino)-3-oxoprop-1-en-1-yl)-1-isopropyl-5a,5b,8,8,11a-pentamethyl-2-oxo-3,3a,4,5,5a,5b,6,7,7a,8,9,10,11,11a,11b,12,13,13a-octadecahydro-2H-cyclopenta[a]chrysen-9-yl)oxy)-2,2-dimethyl-4-oxobutanoic acid] | 0.01 to 0.25 |
| CC(C)C1=C2[C@H]3CC[C@@H]4[C@@]5(C)CC[C@H](OC(=O)CC(C)(C)C(=O)O)C(C)(C)[C@@H]5CC[C@@]4(C)[C@]3(C)CC[C@@]2(/C=C/C(=O)O)CC1=O [Example 16, 4-(((3aS,5aR,5bR,7aR,9S,11aR,11bR,13aS)-3a-((E)-2-Carboxyvinyl)-1-isopropyl-5a,5b,8,8,11a-pentamethyl-2-oxo-3,3a,4,5,5a,5b,6,7,7a,8,9,10,11,11a,11b,12,13,13a-octadecahydro-2H-cyclopenta[a]chrysen-9-yl)oxy)-2,2-dimethyl-4-oxobutanoic acid] | 0.25 to 10 |
| CC(C)C1=C2[C@H]3CC[C@@H]4[C@@]5(C)CC[C@H](OC(=O)CC(C)(C)C(=O)O)C(C)(C)[C@@H]5CC[C@@]4(C)[C@]3(C)CC[C@@]2(/C=C/C(=O)N[C@H](C)c2ccccc2Cl)CC1=O [Example 22, 4-(((3aS,5aR,5bR,7aR,9S,11aR,11bR,13aS)-3a-((E)-3-(((R)-1-(2-Chlorophenyl)ethyl)amino)-3-oxoprop-1-en-1-yl)-1-isopropyl-5a,5b,8,8,11a-pentamethyl-2-oxo-3,3a,4,5,5a,5b,6,7,7a,8,9,10,11,11a,11b,12,13,13a-octadecahydro-2H-cyclopenta[a]chrysen-9-yl)oxy)-2,2-dimethyl-4-oxobutanoic acid] | 0.01 to 0.25 |
| CC(C)C1=C2[C@H]3CC[C@@H]4[C@@]5(C)CC[C@H](OC(=O)CC(C)(C)C(=O)O)C(C)(C)[C@@H]5CC[C@@]4(C)[C@]3(C)CC[C@@]2(/C=C/C(=O)NC2(c3ccc(Cl)cn3)CC2)CC1=O [Example 7, 4-(((3aS,5aR,5bR,7aR,9S,11aR,11bR,13aS)-3a-((E)-3-((1-(5-Chloropyridin-2-yl)cyclopropyl)amino)-3-oxoprop-1-en-1-yl)-1-isopropyl-5a,5b,8,8,11a-pentamethyl-2-oxo-3,3a,4,5,5a,5b,6,7,7a,8,9,10,11,11a,11b,12,13,13a-octadecahydro-2H-cyclopenta[a]chrysen-9-yl)oxy)-2,2-dimethyl-4-oxobutanoic acid] | < 0.01 |
| CC(C)C1=C2[C@H]3CC[C@@H]4[C@@]5(C)CC[C@H](OC(=O)CC(C)(C)C(=O)O)C(C)(C)[C@@H]5CC[C@@]4(C)[C@]3(C)CC[C@@]2(/C=C/C(=O)Nc2ccc(F)cc2)CC1=O [Example 17, 4-(((3aS,5aR,5bR,7aR,9S,11aR,11bR,13aS)-3a-((E)-3-((4-Fluorophenyl)amino)-3-oxoprop-1-en-1-yl)-1-isopropyl-5a,5b,8,8,11a-pentamethyl-2-oxo-3,3a,4,5,5a,5b,6,7,7a,8,9,10,11,11a,11b,12,13,13a-octadecahydro-2H-cyclopenta[a]chrysen-9-yl)oxy)-2,2-dimethyl-4-oxobutanoic acid] | 0.01 to 0.25 |
| Cc1ccc(NC(=O)/C=C/[C@@]23CC[C@]4(C)[C@H](CC[C@@H]5[C@@]6(C)CC[C@H](OC(=O)CC(C)(C)C(=O)O)C(C)(C)[C@@H]6CC[C@]54C)C2=C(C(C)C)C(=O)C3)cc1 [Example 21, 4-(((3aS,5aR,5bR,7aR,9S,11aR,11bR,13aS)-1-Isopropyl-5a,5b,8,8,11a-pentamethyl-2-oxo-3a-((E)-3-oxo-3-(p-tolylamino)prop-1-en-1-yl)-3,3a,4,5,5a,5b,6,7,7a,8,9,10,11,11a,11b,12,13,13a-octadecahydro-2H-cyclopenta[a]chrysen-9-yl)oxy)-2,2-dimethyl-4-oxobutanoic acid] | 0.01 to 0.25 |
| CC(C)C1=C2[C@H]3CC[C@@H]4[C@@]5(C)CC[C@H](OC(=O)CC(C)(C)C(=O)O)C(C)(C)[C@@H]5CC[C@@]4(C)[C@]3(C)CC[C@@]2(/C=C/C(=O)N[C@H](C)c2cccc(Cl)c2)CC1=O [Example 31, 4-(((3aS,5aR,5bR,7aR,9S,11aR,11bR,13aS)-3a-((E)-3-(((R)-1-(3-Chlorophenyl)ethyl)amino)-3-oxoprop-1-en-1-yl)-1-isopropyl-5a,5b,8,8,11a-pentamethyl-2-oxo-3,3a,4,5,5a,5b,6,7,7a,8,9,10,11,11a,11b,12,13,13a-octadecahydro-2H-cyclopenta[a]chrysen-9-yl)oxy)-2,2-dimethyl-4-oxobutanoic acid] | 0.01 to 0.25 |
| C/C(=C\[C@@]12CC[C@]3(C)[C@H](CC[C@@H]4[C@@]5(C)CC[C@H](OC(=O)CC(C)(C)C(=O)O)C(C)(C)[C@@H]5CC[C@]43C)C1=C(C(C)C)C(=O)C2)C(=O)NC1(c2ncc(Cl)cn2)CC1 [Example 28, 4-(((3aS,5aR,5bR,7aR,9S,11aR,11bR,13aS)-3a-((E)-3-((1-(5-Chloropyrimidin-2-yl)cyclopropyl)amino)-2-methyl-3-oxoprop-1-en-1-yl)-1-isopropyl-5a,5b,8,8,11a-pentamethyl-2-oxo-3,3a,4,5,5a,5b,6,7,7a,8,9,10,11,11a,11b,12,13,13a-octadecahydro-2H-cyclopenta[a]chrysen-9-yl)oxy)-2,2-dimethyl-4-oxobutanoic acid] | < 0.01 |
| CC(C)C1=C2[C@H]3CC[C@@H]4[C@@]5(C)CC[C@H](OC(=O)CC(C)(C)C(=O)O)C(C)(C)[C@@H]5CC[C@@]4(C)[C@]3(C)CC[C@@]2(/C=C/C(=O)NC2CCCCC2)CC1=O [Example 30, 4-(((3aS,5aR,5bR,7aR,9S,11aR,11bR,13aS)-3a-((E)-3-(Cyclohexylamino)-3-oxoprop-1-en-1-yl)-1-isopropyl-5a,5b,8,8,11a-pentamethyl-2-oxo-3,3a,4,5,5a,5b,6,7,7a,8,9,10,11,11a,11b,12,13,13a-octadecahydro-2H-cyclopenta[a]chrysen-9-yl)oxy)-2,2-dimethyl-4-oxobutanoic acid] | 0.01 to 0.25 |
| CC(C)C1=C2[C@H]3CC[C@@H]4[C@@]5(C)CC[C@H](OC(=O)CC(C)(C)C(=O)O)C(C)(C)[C@@H]5CC[C@@]4(C)[C@]3(C)CC[C@@]2(/C=C/C(=O)N[C@@H](C)c2ccc(Cl)cn2)CC1=O [Example 3, 4-(((3aS,5aR,5bR,7aR,9S,11aR,11bR,13aS)-3a-((E)-3-(((S)-1-(5-Chloropyridin-2-yl)ethyl)amino)-3-oxoprop-1-en-1-yl)-1-isopropyl-5a,5b,8,8,11a-pentamethyl-2-oxo-3,3a,4,5,5a,5b,6,7,7a,8,9,10,11,11a,1 b,12,13,13a-octadecahydro-2H-cyclopenta[a]chrysen-9-yl)oxy)-2,2-dimethyl-4-oxobutanoic acid] | < 0.01 |
| CC(C)C1=C2[C@H]3CC[C@@H]4[C@@]5(C)CC[C@H](OC(=O)CC(C)(C)C(=O)O)C(C)(C)[C@@H]5CC[C@@]4(C)[C@]3(C)CC[C@@]2(/C=C/C(=O)N[C@H](C)c2ccncn2)CC1=O [Example 9, 4-(((3aS,5aR,5bR,7aR,9S,11aR,11bR,13aS)-1-Isopropyl-5a,5b,8,8,11a-pentamethyl-2-oxo-3a-((E)-3-oxo-3-(((R)-1-(pyrimidin-4-yl)ethyl)amino)prop-1-en-1-yl)-3,3a,4,5,5a,5b,6,7,7a,8,9,10,11,11a,11b,12,13,13a-octadecahydro-2H-cyclopenta[a]chrysen-9-yl)oxy)-2,2-dimethyl-4-oxobutanoic acid] | 0.01 to 0.25 |
| CC(C)C1=C2[C@H]3CC[C@@H]4[C@@]5(C)CC[C@H](OC(=O)CC(C)(C)C(=O)O)C(C)(C)[C@@H]5CC[C@@]4(C)[C@]3(C)CC[C@@]2(/C=C/C(=O)NCCO)CC1=O [Example 32, 4-(((3aS,5aR,5bR,7aR,9S,11aR,11bR,13aS)-3a-((E)-3-((2-Hydroxyethyl)amino)-3-oxoprop-1-en-1-yl)-1-isopropyl-5a,5b,8,8,11a-pentamethyl-2-oxo-3,3a,4,5,5a,5b,6,7,7a,8,9,10,11,11a,11b,12,13,13a-octadecahydro-2H-cyclopenta[a]chrysen-9-yl)oxy)-2,2-dimethyl-4-oxobutanoic acid] | 0.01 to 0.25 |
